Experimental data reported in paper PMC12203311, “Design, synthesis, in silico and in vitro evaluation of pyrrole–indole hybrids as dual tubulin and aromatase inhibitors with potent anticancer activities” (RSC Advances, 2025).

How the values were obtained:
[1] = test system: NCI-H522; assay: NCI60 five-dose screen; type: cell-based; settings: Homo sapiens, NCI-H522, NSC lung cancer
[2] = test system: OVCAR-4; assay: NCI60 five-dose screen; type: cell-based; settings: Homo sapiens, OVCAR-4, ovarian cancer
[3] = test system: MOLT-4; assay: NCI60 five-dose screen; type: cell-based; settings: Homo sapiens, MOLT-4, leukemia
[4] = test system: K-562; assay: NCI60 five-dose screen; type: cell-based; settings: Homo sapiens, K562, K-562, leukemia
[5] = test system: NCI-H322M; assay: NCI60 five-dose screen; type: cell-based; settings: Homo sapiens, NSC lung cancer
[6] = test system: NCI-H460; assay: NCI60 five-dose screen; type: cell-based; settings: Homo sapiens, NCI-H460, NSC lung cancer
[7] = test system: SK-MEL-28; assay: NCI60 five-dose screen; type: cell-based; settings: Homo sapiens, SK-MEL-28, melanoma
[8] = test system: KM12; assay: NCI60 five-dose screen; type: cell-based; settings: Homo sapiens, KM12, colon cancer
[9] = test system: U251; assay: NCI60 five-dose screen; type: cell-based; settings: Homo sapiens, U-251, U251, CNS cancer
[10] = test system: SK-MEL-2; assay: NCI60 five-dose screen; type: cell-based; settings: Homo sapiens, SK-MEL-2, melanoma
[11] = test system: HCT-116; assay: NCI60 five-dose screen; type: cell-based; settings: Homo sapiens, HCT-116, colon cancer
[12] = test system: IGROV1; assay: NCI60 five-dose screen; type: cell-based; settings: Homo sapiens, IGROV-1; IGROV1, ovarian cancer
[13] = test system: MCF7; assay: NCI60 five-dose screen; type: cell-based; settings: Homo sapiens, MCF7, breast cancer
[14] = test system: SN12C; assay: NCI60 five-dose screen; type: cell-based; settings: Homo sapiens, renal cancer
[15] = test system: CCRF-CEM; assay: NCI60 five-dose screen; type: cell-based; settings: Homo sapiens, leukemia
[16] = test system: T47D breast cancer cell line; assay: Cytotoxicity MTT assay, T47D; type: cell-based, human; settings: Homo sapiens, T47D; MTT, 48 hours
Procedure, shortened: (§1)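 T47D breast cancer and L929 mouse fibroblasts in DMEM/10% FBS, seeded at 10 000 cells/well and grown overnight. Compounds at designated concentrations for 48 h at 37 °C, then 0.5 mg/mL MTT for 3 h. Formazan dissolved in DMSO, A570 read, viability as % of DMSO vehicle.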

[17] = test system: L929 normal mouse fibroblast cell line; assay: Cytotoxicity MTT assay, L929; type: cell-based; settings: IC50 (L929)/IC50 (T47D)
Procedure, shortened: as §1

[18] = Cytotoxicity MTT assay, L929; type: cell-based, mouse; settings: mouse, L929 fibroblast cells; MTT, 48 hours
Procedure, shortened: as §1

[19] = test system: OVCAR-8; assay: NCI60 five-dose screen; type: cell-based; settings: Homo sapiens, OVCAR-8, ovarian cancer
[20] = test system: SW-620; assay: NCI60 five-dose screen; type: cell-based; settings: Homo sapiens, SW-620, colon cancer
[21] = test system: HCT-15; assay: NCI60 five-dose screen; type: cell-based; settings: Homo sapiens, HCT-15, colon cancer
[22] = test system: SF-295; assay: NCI60 five-dose screen; type: cell-based; settings: Homo sapiens, SF-295, CNS cancer
[23] = test system: SF-539; assay: NCI60 five-dose screen; type: cell-based; settings: Homo sapiens, SF-539, CNS cancer
[24] = test system: T-47D; assay: NCI60 five-dose screen; type: cell-based; settings: Homo sapiens, T47D, breast cancer
[25] = test system: EKVX; assay: NCI60 five-dose screen; type: cell-based; settings: Homo sapiens, NSC lung cancer
[26] = test system: HT29; assay: NCI60 five-dose screen; type: cell-based; settings: Homo sapiens, HT-29, HT29, colon cancer
[27] = test system: RXF 393; assay: NCI60 five-dose screen; type: cell-based; settings: Homo sapiens, RXF 393, renal cancer
[28] = test system: NCI/ADR-RES; assay: NCI60 five-dose screen; type: cell-based, human; settings: Homo sapiens, ovarian cancer
[29] = test system: HOP-92; assay: NCI60 five-dose screen; type: cell-based; settings: Homo sapiens, HOP-92, NSC lung cancer
[30] = test system: UACC-257; assay: NCI60 five-dose screen; type: cell-based; settings: Homo sapiens, UACC-257, melanoma
[31] = test system: PC-3; assay: NCI60 five-dose screen; type: cell-based; settings: Homo sapiens, PC-3, prostate cancer
[32] = read-out: LC50 (the source's name)

Q: With `O=C(N/N=C/c1ccc(C(=O)N2CCOCC2)[nH]1)c1[nH]c2ccc(Br)cc2c1-c1ccccc1` [Derivative 3n, (E)-5-Bromo-N′-((5-(morpholine-4-carbonyl)-1H-pyrrol-2-yl)methylene)-3-phenyl-1H-indole-2-carbohydrazide] as the compound, how does the GI50 [1] read?
A: The GI50 was 1.6 µM.

Q: And the CC50 [1, 32]?
A: Its CC50 is 58.8 µM.

Q: And the GI50 [2]?
A: Its GI50 is 2.93 µM.

Q: And the CC50 [2, 32]?
A: Its CC50 is over 100 µM.

Q: What about the GI50 [3] of the same compound?
A: The GI50 was 1.5 µM.

Q: And the CC50 [3, 32]?
A: Its CC50 is 20.8 µM.

Q: And the GI50 [4]?
A: The GI50 was 1.27 µM.

Q: And the CC50 [4, 32]?
A: Its CC50 is 42.7 µM.

Q: And the GI50 [5]?
A: The GI50 was 13.9 µM.

Q: And the CC50 [5, 32]?
A: Its CC50 is over 100 µM.

Q: And the GI50 [6]?
A: Its GI50 is 2.49 µM.

Q: What about the CC50 [6, 32] of the same compound?
A: Its CC50 is 54.1 µM.

Q: And the GI50 [7]?
A: Its GI50 is 6.1 µM.

Q: What about the CC50 [7, 32] of the same compound?
A: The CC50 was over 100 µM.

Q: What about the GI50 [8] of the same compound?
A: The GI50 was 2.91 µM.

Q: And the CC50 [8, 32]?
A: The CC50 was 43.6 µM.

Q: What about the GI50 [9] of the same compound?
A: Its GI50 is 3.1 µM.

Q: And the CC50 [9, 32]?
A: The CC50 was 84.7 µM.

Q: And the GI50 [10]?
A: The GI50 was 2.8 µM.

Q: What about the CC50 [10, 32] of the same compound?
A: The CC50 was 48.3 µM.

Q: And the GI50 [11]?
A: The GI50 was 2.79 µM.

Q: And the CC50 [11, 32]?
A: The CC50 was 66.7 µM.

Q: And the GI50 [12]?
A: Its GI50 is 6.69 µM.

Q: And the GI50 [13]?
A: Its GI50 is 2.46 µM.

Q: What about the CC50 [13, 32] of the same compound?
A: The CC50 was 77.8 µM.

Q: What about the GI50 [14] of the same compound?
A: Its GI50 is 3.14 µM.

Q: And the CC50 [14, 32]?
A: Its CC50 is 79.7 µM.

Q: And the GI50 [15]?
A: The GI50 was 3.45 µM.

Q: What about the CC50 [15, 32] of the same compound?
A: The CC50 was over 100 µM.

Q: What about the IC50 [16] of the same compound?
A: The IC50 was 5.4 ± 4.8 µM.

Q: And the “Selectivity index (SI)” value [17]?
A: The value was 4.04.

Q: What about the IC50 at 48 h [18] of the same compound?
A: The IC50 at 48 h was 21.8 ± 11.5 µM.

Q: And the GI50 [19]?
A: The GI50 was 2.86 µM.

Q: And the CC50 [19, 32]?
A: Its CC50 is 43.1 µM.

Q: And the GI50 [20]?
A: Its GI50 is 3.26 µM.

Q: And the CC50 [20, 32]?
A: Its CC50 is over 100 µM.

Q: What about the GI50 [21] of the same compound?
A: The GI50 was 2.62 µM.

Q: And the CC50 [21, 32]?
A: Its CC50 is over 100 µM.

Q: And the GI50 [22]?
A: Its GI50 is 1.63 µM.

Q: What about the CC50 [22, 32] of the same compound?
A: The CC50 was 31 µM.

Q: What about the GI50 [23] of the same compound?
A: The GI50 was 2.23 µM.

Q: And the CC50 [23, 32]?
A: The CC50 was 34.9 µM.

Q: What about the GI50 [24] of the same compound?
A: Its GI50 is 3.1 µM.

Q: And the CC50 [24, 32]?
A: The CC50 was over 100 µM.

Q: What about the GI50 [25] of the same compound?
A: The GI50 was 7.51 µM.

Q: And the CC50 [25, 32]?
A: Its CC50 is over 100 µM.

Q: What about the GI50 [26] of the same compound?
A: The GI50 was 2.57 µM.

Q: What about the CC50 [26, 32] of the same compound?
A: Its CC50 is 38.3 µM.

Q: And the GI50 [27]?
A: Its GI50 is 1.06 µM.

Q: What about the CC50 [27, 32] of the same compound?
A: Its CC50 is 14.7 µM.

Q: And the GI50 [28]?
A: The GI50 was 1.92 µM.

Q: What about the CC50 [28, 32] of the same compound?
A: Its CC50 is 84.1 µM.

Q: What about the GI50 [29] of the same compound?
A: Its GI50 is 6.14 µM.

Q: What about the CC50 [29, 32] of the same compound?
A: Its CC50 is over 100 µM.

Q: What about the GI50 [30] of the same compound?
A: Its GI50 is 11.9 µM.

Q: And the CC50 [30, 32]?
A: The CC50 was 94.4 µM.

Q: What about the GI50 [31] of the same compound?
A: Its GI50 is 3.44 µM.

Q: What about the CC50 [31, 32] of the same compound?
A: Its CC50 is over 100 µM.
